Target: T1, SMARCA2 (Homo sapiens, UniProt P51531)
T1 construct: endogenous in cells
Test: SMARCA2 HiBiT degradation assay (cellular)
Format: cell-based
Details: for Emax: A549, Emax = amount of residual protein remaining in the cell following compound treatment; for DC50: SMARCA2 HiBiT cells, luminescence readout, 11-point titration from 10 μM, 6 hours or 16 hours, read-out: HiBit A549 SMARCA2 IP

T1 sequence (P51531 whole entry): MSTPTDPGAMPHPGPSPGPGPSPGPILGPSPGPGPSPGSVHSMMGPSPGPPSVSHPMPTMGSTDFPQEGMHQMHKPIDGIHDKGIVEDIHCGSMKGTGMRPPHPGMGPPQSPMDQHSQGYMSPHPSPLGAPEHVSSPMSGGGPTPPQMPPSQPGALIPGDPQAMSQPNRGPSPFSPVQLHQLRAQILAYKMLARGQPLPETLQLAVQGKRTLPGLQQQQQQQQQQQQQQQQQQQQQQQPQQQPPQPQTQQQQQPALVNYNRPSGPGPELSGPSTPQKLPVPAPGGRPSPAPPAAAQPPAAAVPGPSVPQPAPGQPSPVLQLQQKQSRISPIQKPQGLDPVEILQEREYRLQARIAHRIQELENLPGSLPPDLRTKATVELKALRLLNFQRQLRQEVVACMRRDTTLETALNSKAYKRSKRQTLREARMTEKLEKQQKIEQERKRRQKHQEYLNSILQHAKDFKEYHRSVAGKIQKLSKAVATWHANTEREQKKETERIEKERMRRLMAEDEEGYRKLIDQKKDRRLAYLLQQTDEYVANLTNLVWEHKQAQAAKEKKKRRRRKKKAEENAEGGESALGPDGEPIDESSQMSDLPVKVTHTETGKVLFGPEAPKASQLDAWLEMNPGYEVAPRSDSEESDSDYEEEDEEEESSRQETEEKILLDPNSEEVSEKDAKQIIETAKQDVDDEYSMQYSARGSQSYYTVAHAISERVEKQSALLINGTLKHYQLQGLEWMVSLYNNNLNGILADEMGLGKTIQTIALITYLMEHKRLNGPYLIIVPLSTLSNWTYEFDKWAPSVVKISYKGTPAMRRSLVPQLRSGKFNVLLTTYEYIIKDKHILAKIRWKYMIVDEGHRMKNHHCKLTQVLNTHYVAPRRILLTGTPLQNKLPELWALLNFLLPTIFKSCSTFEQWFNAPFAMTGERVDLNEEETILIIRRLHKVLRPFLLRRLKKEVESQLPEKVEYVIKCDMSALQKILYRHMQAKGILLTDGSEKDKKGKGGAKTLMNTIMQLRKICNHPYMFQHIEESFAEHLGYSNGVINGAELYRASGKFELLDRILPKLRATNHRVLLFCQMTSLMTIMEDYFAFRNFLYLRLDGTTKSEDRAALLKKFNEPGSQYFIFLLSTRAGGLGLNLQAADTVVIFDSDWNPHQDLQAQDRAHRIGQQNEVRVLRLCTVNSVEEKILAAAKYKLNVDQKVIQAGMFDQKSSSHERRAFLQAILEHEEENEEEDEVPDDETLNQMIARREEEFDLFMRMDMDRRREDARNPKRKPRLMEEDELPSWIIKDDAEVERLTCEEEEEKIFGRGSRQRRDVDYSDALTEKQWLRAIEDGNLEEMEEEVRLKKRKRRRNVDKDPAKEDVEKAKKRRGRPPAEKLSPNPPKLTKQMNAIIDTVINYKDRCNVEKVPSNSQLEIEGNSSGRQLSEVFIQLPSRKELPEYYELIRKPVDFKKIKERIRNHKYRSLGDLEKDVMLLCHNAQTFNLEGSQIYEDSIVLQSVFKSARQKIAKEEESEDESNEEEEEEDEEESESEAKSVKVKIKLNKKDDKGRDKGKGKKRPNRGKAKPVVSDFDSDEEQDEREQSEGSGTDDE

Row | Structure (SMILES) | Emax | DC50
1 | Cc1ncsc1-c1ccc(CNC(=O)[C@@H]2C[C@H](O)CN2C(=O)[C@@H](NC(=O)CCCCCCCCCC(=O)N2CCC(Cc3cccc(N4C5CCC4CN(c4cc(-c6ccccc6O)nnc4N)C5)c3)CC2)C(C)(C)C)cc1 [Example 15, (2S,4S)-1-[(2S)-2-[[11-[4-[[3-[3-[3-amino-6-(2-hydroxyphenyl)pyridazin-4-yl]-3,8-diazabicyclo[3.2.1]octan-8-yl]phenyl]methyl]-1-piperidyl]-11-oxo-undecanoyl]amino]-3,3-dimethyl-butanoyl]-4-hydroxy-N-[[4-(4-methylthiazol-5-yl)phenyl]methyl]pyrrolidine-2-carboxamide] | 24% | 487 nM
2 | Cc1ncsc1-c1ccc(CNC(=O)[C@@H]2C[C@@H](O)CN2C(=O)[C@@H](NC(=O)CCCCCCCCC(=O)N2CCN(c3cc(-c4ccccc4O)nnc3N)CC23CC3)C(C)(C)C)cc1 [Example 16, (2S,4R)-1-[(2S)-2-[[10-[7-[3-amino-6-(2-hydroxyphenyl)pyridazin-4-yl]-4,7-diazaspiro[2.5]octan-4-yl]-10-oxo-decanoyl]amino]-3,3-dimethyl-butanoyl]-4-hydroxy-N-[[4-(4-methylthiazol-5-yl)phenyl]methyl]pyrrolidine-2-carboxamide] | 33% | 872 nM
3 | Cc1ncsc1-c1ccc(CNC(=O)[C@@H]2C[C@@H](O)CN2C(=O)[C@@H](NC(=O)CCCCCCCCC(=O)N2CC=C(c3cc(-c4ccccc4O)nnc3N)CC2)C(C)(C)C)cc1 [Example 17, (2S,4R)-1-[(2S)-2-[[10-[4-[3-amino-6-(2-hydroxyphenyl)pyridazin-4-yl]-3,6-dihydro-2H-pyridin-1-yl]-10-oxo-decanoyl]amino]-3,3-dimethyl-butanoyl]-4-hydroxy-N-[[4-(4-methylthiazol-5-yl)phenyl]methyl]pyrrolidine-2-carboxamide] | 50% | 2820 nM
4 | Cc1ncsc1-c1ccc(CNC(=O)[C@@H]2C[C@@H](O)CN2C(=O)[C@@H](NC(=O)CCCCCCCCCC(=O)N2CCN(C(=O)c3cccc(CN4C5CCC4CN(c4cc(-c6ccccc6O)nnc4N)C5)c3)CC2)C(C)(C)C)cc1 [Example 18, (2S,4R)-1-[(2S)-2-[[11-[4-[3-[[3-[3-amino-6-(2-hydroxyphenyl)pyridazin-4-yl]-3,8-diazabicyclo[3.2.1]octan-8-yl]methyl]benzoyl]piperazin-1-yl]-11-oxo-undecanoyl]amino]-3,3-dimethyl-butanoyl]-4-hydroxy-N-[[4-(4-methylthiazol-5-yl)phenyl]methyl]pyrrolidine-2-carboxamide] | 63% | 848 nM
5 | Cc1ncsc1-c1ccc(CNC(=O)[C@@H]2C[C@@H](O)CN2C(=O)[C@@H](NC(=O)CCCCCCCCC(=O)N2C3CCCC2CN(c2cc(-c4ccccc4O)nnc2N)C3)C(C)(C)C)cc1 [Example 19, (2S,4R)-1-[(2S)-2-[[10-[3-[3-Amino-6-(2-hydroxyphenyl)pyridazin-4-yl]-3,9-diazabicyclo[3.3.1]nonan-9-yl]-10-oxo-decanoyl]amino]-3,3-dimethyl-butanoyl]-4-hydroxy-N-[[4-(4-methylthiazol-5-yl)phenyl]methyl]pyrrolidine-2-carboxamide] | 18% | 754 nM
6 | Cc1ncsc1-c1ccc(CNC(=O)[C@@H]2C[C@@H](O)CN2C(=O)[C@H](NC(=O)CCCCCCCCCOc2cccc(N3C4CCC3CN(c3cc(-c5ccccc5O)nnc3N)C4)c2)C(C)(C)C)cc1 [Example 20, (2S,4R)-1-[(2R)-2-[10-[3-[3-[3-amino-6-(2-hydroxyphenyl)pyridazin-4-yl]-3,8-diazabicyclo[3.2.1]octan-8-yl]phenoxy]decanoylamino]-3,3-dimethyl-butanoyl]-4-hydroxy-N-[[4-(4-methylthiazol-5-yl)phenyl]methyl]pyrrolidine-2-carboxamide] | 33% | 313 nM
7 | Cc1ncsc1-c1ccc(CNC(=O)[C@@H]2C[C@@H](O)CN2C(=O)[C@@H](NC(=O)CCCCCCCCC(=O)N2CCN(Cc3cccc(CN4C5CCC4CN(c4cc(-c6ccccc6O)nnc4N)C5)c3)CC2)C(C)(C)C)cc1 [Example 29, (2S,4R)-1-[(2S)-2-[[10-[4-[[3-[[3-[3-amino-6-(2-hydroxyphenyl)pyridazin-4-yl]-3,8-diazabicyclo[3.2.1]octan-8-yl]methyl]phenyl]methyl]piperazin-1-yl]-10-oxo-decanoyl]amino]-3,3-dimethyl-butanoyl]-4-hydroxy-N-[[4-(4-methylthiazol-5-yl)phenyl]methyl]pyrrolidine-2-carboxamide] | 30% | 1110 nM
8 | Cc1ncsc1-c1ccc(CNC(=O)[C@@H]2C[C@@H](O)CN2C(=O)[C@H](C(C)C)N2Cc3ccccc3C2=O)c(OCCCCCCCCCCC(=O)N2CCN(CCOc3cccc(N4C5CCC4CN(c4cc(-c6ccccc6O)nnc4N)C5)c3)CC2)c1 [Example 30, (2S,4R)-N-[[2-[11-[4-[2-[3-[3-[3-amino-6-(2-hydroxyphenyl)pyridazin-4-yl]-3,8-diazabicyclo[3.2.1]octan-8-yl]phenoxy]ethyl]piperazin-1-yl]-11-oxo-undecoxy]-4-(4-methylthiazol-5-yl)phenyl]methyl]-4-hydroxy-1-[(2S)-3-methyl-2-(1-oxoisoindolin-2-yl)butanoyl]pyrrolidine-2-carboxamide] | 65% | 1160 nM
9 | Cc1ncsc1-c1ccc(CNC(=O)[C@@H]2C[C@@H](O)CN2C(=O)[C@@H](NC(=O)CCCCCCCCC(=O)N2CCN(CCOc3cccc(C#Cc4cc(-c5ccccc5O)nnc4N)c3)CC2)C(C)(C)C)cc1 [Example 35, (2S,4R)-1-[(2S)-2-[[10-[4-[2-[3-[2-[3-amino-6-(2-hydroxyphenyl)pyridazin-4-yl]ethynyl]phenoxy]ethyl]piperazin-1-yl]-10-oxo-decanoyl]amino]-3,3-dimethyl-butanoyl]-4-hydroxy-N-[[4-(4-methylthiazol-5-yl)phenyl]methyl]pyrrolidine-2-carboxamide] | 39% | 952 nM
10 | Cc1ncsc1-c1ccc(CNC(=O)[C@@H]2C[C@@H](O)CN2C(=O)[C@@H](NC(=O)CCCCCCCCCCC(=O)N2CCN(CCOc3cccc(C#Cc4cc(-c5ccccc5O)nnc4N)c3)CC2)C(C)(C)C)cc1 [Example 36, (2S,4R)-1-[(2S)-2-[[12-[4-[2-[3-[2-[3-amino-6-(2-hydroxyphenyl)pyridazin-4-yl]ethynyl]phenoxy]ethyl]piperazin-1-yl]-12-oxo-dodecanoyl]amino]-3,3-dimethyl-butanoyl]-4-hydroxy-N-[[4-(4-methylthiazol-5-yl)phenyl]methyl]pyrrolidine-2-carboxamide] | 49% | 838 nM
11 | Cc1ncsc1-c1ccc([C@H](C)NC(=O)[C@@H]2C[C@@H](O)CN2C(=O)[C@@H](NC(=O)CCCCCCCCCC(=O)N2CCN(CCOc3cccc(N4C5CCC4CN(c4cc(-c6ccccc6O)nnc4N)C5)c3)CC2)C(C)(C)C)cc1 [Example 37, (2S,4R)-1-[(2S)-2-[[11-[4-[2-[3-[3-[3-amino-6-(2-hydroxyphenyl)pyridazin-4-yl]-3,8-diazabicyclo[3.2.1]octan-8-yl]phenoxy]ethyl]piperazin-1-yl]-11-oxo-undecanoyl]amino]-3,3-dimethyl-butanoyl]-4-hydroxy-N-[(1S)-1-[4-(4-methylthiazol-5-yl)phenyl]ethyl]pyrrolidine-2-carboxamide] | 29% | 73 nM

Source: patent US20230002367A1, “BIFUNCTIONAL COMPOUNDS” (Hoffmann-La Roche Inc., priority 2019, published 2023)
